According to patent US8735398B2 (Bristol-Myers Squibb Company, priority 2009, dated 2014):
Where two headings read alike, the source gives them in different places.

Tested on: HCV 1b genotype
Experiment: HCV replicon assay (HCV-neo replicon cells, wild-type)
Assay type: cell-based, Hepatitis C virus
Details: HCV 1b genotype replicon
Method in brief: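 HCV-neo replicon cells (wild-type) and replicon cells carrying NS5A resistance substitutions were treated with compounds; assay per O'Boyle et al. 2005, with luciferase-reporter read-out variants also used.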

[1] = Hepatitis C virus, class symbol, read-out: EC50 Range against HCV 1b
[2] = Hepatitis C virus, read-out: EC50 1b
[3] = Hepatitis C virus, class symbols, read-out: EC50 Range against HCV 1b

Row | SMILES | EC50 [1] [µM] | other results
1 | C[C@H](NC(=O)[C@@](C)(O)c1ccccc1)C(=O)Nc1ccc(-c2cnc(-c3ccc(NC(=O)[C@H](C)NC(=O)[C@@](C)(O)c4ccccc4)cc3)o2)cc1 [OL-56, ((2S,2′S)-N,N′-(1,3-oxazole-2,5-diylbis(4,1-phenyleneimino((2S)-1-oxo-1,2-propanediyl)))bis(2-hydroxy-2-phenylpropanamide))] | < 0.00457 | –
2 | CC(C)(C)O[C@@H]1C[C@@H](C(=O)Nc2ccc(-c3cc(-c4ccc(NC(=O)[C@@H]5C[C@@H](OC(C)(C)C)CN5C(=O)OCc5ccccc5)cc4)[nH]n3)cc2)N(C(=O)OCc2ccccc2)C1 [OL-49, dibenzyl (2S,4R,2′S,4′R)-2,2′-(1H-pyrazole-3,5-diylbis(4,1-phenylenecarbamoyl))bis(4-tert-butoxy-1-pyrrolidinecarboxylate)] | 0.1 to 0.999 | EC50 [2]: 0.23 µM
3 | CO[C@@H](C(=O)N1CCC[C@H]1C(=O)Nc1ccc(-c2cc(-c3ccc(NC(=O)[C@@H]4CCCN4C(=O)[C@H](OC)c4ccccc4)cc3)[nH]n2)cc1)c1ccccc1 [JG-37, (2S,2′S)-N,N′-(1H-pyrazole-3,5-diyldi-4,1-phenylene)bis(1-((2R)-2-methoxy-2-phenylacetyl)-2-pyrrolidinecarboxamide)] | < 0.00457 | –
4 | CN(C)C(Cc1ccc(Br)cc1)C(=O)N1CCC[C@H]1C(=O)Nc1ccc(-c2cnc(-c3ccc(NC(=O)[C@@H]4CCCN4C(=O)C(Cc4ccc(Br)cc4)N(C)C)cc3)o2)cc1 (stereo partly drawn) [JR-8, (2S)-N,N′-(4,4′-(oxazole-2,5-diyl)bis(4,1-phenylene))bis(1-(3-(4-bromophenyl)-2-(dimethylamino)propanoyl)pyrrolidine-2-carboxamide)] | – | EC50 (class symbols, read-out: EC50 Range against HCV 1b): 0.00457 to 0.099 µM
5 | C[C@H](O)[C@@H](NC(=O)c1ccccc1)C(=O)N1CCC[C@H]1C(=O)Nc1ccc(-c2cnc(-c3ccc(NC(=O)[C@@H]4CCCN4C(=O)[C@H](NC(=O)c4ccccc4)[C@H](C)O)cc3)o2)cc1 [Example D-18, (R,S,2S,2′S)-N,N′-(4,4′-(oxazole-2,5-diyl)bis(4,1-phenylene))bis(1-((2R,3S)-2-benzamido-3-hydroxybutanoyl)pyrrolidine-2-carboxamide)] | – | EC50 (class symbol, read-out: EC50 Range against HCV 1b): 1 to 10 µM; EC50 (read-out: EC50 1b): 5.96 µM
6 | C[C@@H](C(=O)N1CCC[C@H]1C(=O)Nc1ccc(-c2ccc(-c3ccc(NC(=O)[C@@H]4CCCN4C(=O)[C@H](C)c4ccccc4)cc3)o2)cc1)c1ccccc1 [JG-53, (2S,2′S)-N,N′-(2,5-furandiyldi-4,1-phenylene)bis(1-((2R)-2-phenylpropanoyl)-2-pyrrolidinecarboxamide)] | 0.00457 to 0.099 | –
7 | CN(C)[C@@H](C(=O)N1CCC[C@@H]1C(=O)N1CCC[C@H]1C(=O)Nc1ccc(-c2cnc(-c3ccc(NC(=O)[C@@H]4CCCN4C(=O)[C@H]4CCCN4C(=O)[C@@H](c4ccccc4)N(C)C)cc3)o2)cc1)c1ccccc1 [Example D-39, (2S,2′S)-N,N′-(1,3-oxazole-2,5-diyldi-4,1-phenylene)bis(1-(((2R)-1-((2R)-2-(dimethylamino)-2-phenylacetyl)-2-pyrrolidinyl)carbonyl)-2-pyrrolidinecarboxamide)] | 1 to 10 | –
8 | CCCC(C)C(=O)N1CCC[C@H]1C(=O)Nc1ccc(-c2cnc(-c3ccc(NC(=O)[C@@H]4CCCN4C(=O)C(C)CCC)cc3)o2)cc1 (stereo partly drawn) [XY-9, (2S,2′S)-N,N′-(1,3-oxazole-2,5-diyldi-4,1-phenylene)bis(1-(2-methylpentanoyl)-2-pyrrolidinecarboxamide)] | – | EC50 [3]: 0.1 to 0.999 µM
9 | O=C(Nc1ccc(-c2cc(-c3ccc(NC(=O)[C@@H]4CCCN4C(=O)[C@@H](O)c4ccccc4)cc3)[nH]n2)cc1)[C@@H]1CCCN1C(=O)[C@@H](O)c1ccccc1 [JG-33, (2S,2′S)-N,N′-(1H-pyrazole-3,5-diyldi-4,1-phenylene)bis(1-((2S)-2-hydroxy-2-phenylacetyl)-2-pyrrolidinecarboxamide)] | 0.00457 to 0.099 | –
10 | CC(=O)N1CCC[C@H]1C(=O)Nc1ccc(-c2cnc(-c3ccc(NC(=O)[C@@H]4CCCN4C(=O)Cc4ccccc4)cc3)o2)cc1 [MS-1, (2S)-1-acetyl-N-(4-(2-(4-((((2S)-1-(phenylacetyl)-2-pyrrolidinyl)carbonyl)amino)phenyl)-1,3-oxazol-5-yl)phenyl)-2-pyrrolidinecarboxamide] | 0.1 to 0.999 | –
11 | O=C(Nc1ccc(-c2nnc(-c3ccc(NC(=O)[C@@H]4CCCN4C(=O)[C@@H]4CCCO4)cc3)o2)cc1)[C@@H]1CCCN1C(=O)C1CCCO1 (stereo partly drawn) [Example D-60, (S,2S,2′S)-N,N′-(4,4′-(1,3,4-oxadiazole-2,5-diyl)bis(4,1-phenylene))bis(1-((S)-tetrahydrofuran-2-carbonyl)pyrrolidine-2-carboxamide)] | 0.1 to 0.999 | EC50 [2]: 0.65 µM
12 | O=C(Nc1ccc(-c2nnc(-c3ccc(NC(=O)[C@@H]4CCCN4C(=O)C4CC4)cc3)o2)cc1)[C@@H]1CCCN1C(=O)C1CC1 [Example D-58, (2S,2′S)-N,N′-(1,3,4-oxadiazole-2,5-diyldi-4,1-phenylene)bis[1-(cyclopropylcarbonyl)-2-pyrrolidinecarboxamide]] | 1 to 10 | EC50 [2]: 2.21 µM
13 | CN(C)C(C(=O)N1CCC[C@H]1C(=O)Nc1ccc(-c2cnc(-c3ccc(NC(=O)[C@@H]4CCCN4C(=O)C(c4ccc(F)cc4F)N(C)C)cc3)o2)cc1)c1ccc(F)cc1F (stereo partly drawn) [Example D-5, (2S,2′S)-N,N′-(2,5-oxazolediyldi-4,1-phenylene)bis[1-[(2,4-difluorophenyl)(dimethylamino)acetyl]-2-pyrrolidinecarboxamide]] | < 0.00457 | –
14 | CN(C)CC(=O)N1CCC[C@H]1C(=O)Nc1ccc(-c2cnc(-c3ccc(NC(=O)[C@@H]4CCCN4C(=O)CN(C)C)cc3)o2)cc1 [XY-5, (2S,2′S)-N,N′-(1,3-oxazole-2,5-diyldi-4,1-phenylene)bis(1-((dimethylamino)acetyl)-2-pyrrolidinecarboxamide)] | – | EC50 [3]: 1 to 10 µM
15 | C[C@@](O)(C(=O)N1CC[C@@H](NC(=O)Nc2ccc(-c3cnc(-c4ccc(NC(=O)N[C@@H]5CCN(C(=O)[C@@](C)(O)c6ccccc6)C5)cc4)o3)cc2)C1)c1ccccc1 [FY-7, N′,N′″-(1,3-oxazole-2,5-diyldi-4,1-phenylene)bis(1-((3R)-1-(2-hydroxy-2-phenylpropanoyl)-3-pyrrolidinyl)urea)] | 0.1 to 0.999 | –
16 | C[C@@](O)(C(=O)N1CCC[C@H]1C(=O)Nc1ccc(-c2cc(-c3ccc(NC(=O)[C@@H]4CCCN4C(=O)[C@@](C)(O)c4ccccc4)cc3)[nH]n2)cc1)c1ccccc1 [JG-39, (2S,2′S)-N,N′-(1H-pyrazole-3,5-diyldi-4,1-phenylene)bis(1-((2S)-2-hydroxy-2-phenylpropanoyl)-2-pyrrolidinecarboxamide)] | < 0.00457 | EC50 [2]: < 0.005 µM
17 | C[C@H](NC(=O)[C@H](O)c1ccccc1)C(=O)Nc1ccc(-c2cnc(-c3ccc(NC(=O)[C@H](C)NC(=O)[C@H](O)c4ccccc4)cc3)o2)cc1 [OL-55, (2S,2′S)-N,N′-(1,3-oxazole-2,5-diyldi-4,1-phenylene)bis(2-(((2R)-2-hydroxy-2-phenylacetyl)amino)propanamide)] | < 0.00457 | –
18 | CC1CC1C(=O)N1CCC[C@H]1C(=O)Nc1ccc(-c2cnc(-c3ccc(NC(=O)[C@@H]4CCCN4C(=O)C4CC4C)cc3)o2)cc1 (stereo partly drawn) [XY-16, (2S,2′S)-N,N′-(1,3-oxazole-2,5-diyldi-4,1-phenylene)bis(1-((2-methylcyclopropyl)carbonyl)-2-pyrrolidinecarboxamide)] | – | EC50 [3]: 0.1 to 0.999 µM
